Source: patent EP1997826A2, “Synthetic ligands for immunoglobulins and pharmaceutical compositions containing them” (Tecnogen S.p.A., priority 2007, dated 2008)
Where two headings read alike, the source gives them in different places.

Legend:
[1] = tested on: female mice of the Balb/c strain; assay type: in vivo, mouse; settings: for dose producing 50% inhibition of the local allergic reaction: mouse, intraperitoneally; for Inhibition of skin reaction (%): 30 minutes before antigen
Description: Cutaneous passive anaphylaxis on the mouse ear was induced according to the procedure described by Inagaki et al., Int. Arch. Allergy Appl. Immunol. 1985, 78:113-117. Rat ascitic fluid containing specific IgEs against the ovalbumin antigen was injected in the ear of female mice of the Balb/c strain. Ascitic fluid at different dilutions (5-10-20 times in PBS) was applied by intradermal injections at a volume of 10 µl, permitting the IgEs present in the ascitic fluid to bind to the FcεRs of the local mast cells, sensitizing them. After 48 hours, 0.25 mg of ovalbumin and Evans Blue dye at a concentration of 1.8%, dissolved in 70 µl of PBS, were injected intravenously. After 30 minutes, the appearance, on the mouse ear, of stained areas in the dermis, with extent and intensity of staining proportional to the quantity of antigen-specific IgEs injected with the ascitic fluid, was observed. The experiment included a negative control, represented by the intradermal injection of 10 µl of PBS without ascitic fluid, and there was no corresponding appearance of staining. The mice were sacrificed and the ears were removed for extraction and measurement of the dye discharged in the skin reaction. Each ear was dissolved in 0.5 ml of 1 M KOH, incubating at 37°C for 16 hours. After incubation, 2 ml of a mixture of 0.6M phosphoric acid and acetone in the ratio 5:13 (v:v) was added. The sample was then stirred and filtered, and finally the amount of dye was determined with a spectrophotometer, taking readings at 620 nm. On the basis of the results obtained in the IgE-FcER linear binding assay, selecting as reference point the value of dilution of the ascitic fluid at which the most intense inflammatory reaction was observed, an assay of inhibition of the allergic reaction was performed using peptide IB and the comparative peptide. As described previously, intradermal injections of 10 µl of ascitic fluid, diluted 20 times in PBS, were applied to the ear lobe of a group of Balb/c mice, permitting the IgEs present in the ascitic fluid to bind to the FcεRs of the local mast cells, sensitizing them. After two days, various amounts of the peptides under investigation were dissolved in 100 µl of PBS and administered intraperitoneally to the sensitized mice. In particular, doses corresponding to 0.5 - 1 - 5 - 10 - 50 mg of peptide per kg of body weight of the mouse were used. 100 µl of PBS was injected as negative control. After 30 minutes the mice received the intravenous injection of the solution of ovalbumin and Evans Blue dye.

RBL 2H3 cells = test: assay for degranulation of the RBL 2H3 cells (release of β-hexose-aminidase induced by anti-DNP IgE and DNP-BSA antigen); assay type: cell-based, rat; settings: for percentage inhibition of the degranulation reaction: added together with the antigen; for concentration able to reduce 50% of the cellular degranulation: RBL 2H3 cells, 0.5 µg/ml IgE, 0.05 µg/ml DNP-BSA; for IC50: read-out: concentration able to reduce 50% of the cellular degranulation
Excerpt: The RBL 2H3 cell line, rat basophils that express the receptor with high affinity for the immunoglobulins of class E (FcεRl), is widely used for investigating allergic reactions, because in this cell line the chemical mediators of inflammation are released as a result of allergen specific-IgE-FcεRI binding.
Release of the enzyme β-hexose-aminidase, which is present together with histamine in the granules of mast cells and basophils, can be used as an index of cellular degranulation (Tanaka et al., 1991, Chem. Pharm. Bull, 39, 2072-2076; McCloskey et al., 1988, Proc. Natl. Acad. Sci., USA, 85, 7260-7264).
The activity of the enzyme β-hexose-aminidase, released by the stimulated RBL 2H3 cells, was determined by the method described by Yamanishi et al., 1995, Jour. Biotech. Biochem., 59 (7), 1272-1275, which envisages measurement of the enzymatic activity by measuring the absorbance of the product p-nitrophenol generated by the synthetic substrate p-nitrophenyl-N-acetyl-β-D-glucosamide. 1x10^5 RBL 2H3 cells, trypsinized from plates at confluence, were resuspended in a volume of 80 µl of the culture medium (MEM + 10% inactivated fetal bovine serum) and distributed in each well of the 96-well plates (Costar). After 24 hours, 20 µl of medium containing anti-2,4-dinitrophenol monoclonal IgEs (DNP, Sigma, Cat. No. D-8406) was added to each well.
The microplates were incubated at 37°C for one hour and then washed three times with 100 µl of HBS buffer solution (10 mM HEPES, 135 mM NaCl, 5 mM KCI, 1 mM CaCl2, 0.5 mM MgCl2, 5.6 mM glucose, 0.1 % BSA, pH 7.4). After the washings, 100 µl of HBS containing the 2,4-dinitrophenol antigen conjugated to BSA (Sigma, Cat. No. A-6661) was added. As a control, 100 µl of HBS containing 1% Triton X-100 was added to some wells to determine the total amount of enzyme contained in the cellular granules.
After further incubation at 37°C for two hours, 30 µl of cellular supernatant or of cellular lysate was transferred to a new microplate, to which 50 µl of sodium citrate buffer at pH 4.5, containing 4 mM p-nitrophenyl-N-acetyl-β-D-glucosaminide (Sigma, Cat. No. N9376), a specific substrate for the enzyme β-hexose-aminidase, had been added beforehand. After incubation for two hours at 37°C, the reaction was stopped by adding 100 µl of glycine solution 0.2 M, pH 10.7. The enzymatic activity was determined by measuring the absorbance at 405 nm with a Microplate Reader Model 3550 EIA (Bio-Rad).
In preliminary experiments the immunoglobulins E and the antigen were added at various concentrations in order to determine the optimum concentrations for induction of the reaction of enzymatic release. The conditions identified experimentally correspond to 0.5 µg/ml of IgE and 0.05 µg/ml of antigen DNP conjugated to BSA.
To verify the capacity of the peptides of formula IB and of comparative peptides for inhibiting the degranulation of the RBL 2H3 cells, the peptides were added in the assay together with the antigen at concentrations between 0.1 and 500 µg/ml.

[2] = Concentration of Peptide 0.1 µg/ml
[3] = Concentration of Peptide 1 µg/ml
[4] = Concentration of Peptide 10 µg/ml
[5] = Concentration of Peptide 50 µg/ml
[6] = Concentration of Peptide 100 µg/ml
[7] = Concentration of Peptide 500 µg/ml

| IC50 (RBL 2H3 cells) [nM] | Compound | dose producing 50% inhibition of the local allergic reaction [1] | percentage inhibition of the degranulation reaction (RBL 2H3 cells; [2]) [%] | percentage inhibition of the degranulation reaction (RBL 2H3 cells; [3]) [%] | percentage inhibition of the degranulation reaction (RBL 2H3 cells; [4]) [%] | percentage inhibition of the degranulation reaction (RBL 2H3 cells; [5]) [%] | percentage inhibition of the degranulation reaction (RBL 2H3 cells; [6]) [%] | percentage inhibition of the degranulation reaction (RBL 2H3 cells; [7]) [%] | concentration able to reduce 50% of the cellular degranulation (RBL 2H3 cells) [µg/mL] | Inhibition of skin reaction (%) ([1]; Dose of Peptide 0.5 mg/kg intraperitoneally) | Inhibition of skin reaction (%) ([1]; Dose of Peptide 1.0 mg/kg intraperitoneally) | Inhibition of skin reaction (%) ([1]; Dose of Peptide 5.0 mg/kg intraperitoneally) | Inhibition of skin reaction (%) ([1]; Dose of Peptide 10.0 mg/kg intraperitoneally) | Inhibition of skin reaction (%) ([1]; Dose of Peptide 50.0 mg/kg intraperitoneally) | activity greater than the activity of the comparative peptide ([1]; mouse ear passive cutaneous anaphylaxis) | activity greater than the activity of the comparative peptide (RBL 2H3 cells; degranulation of RBL 2H3 cells) |
| --- | --- | --- | --- | --- | --- | --- | --- | --- | --- | --- | --- | --- | --- | --- | --- | --- |
| 4600 | C[C@H](O)[C@@H](NC(=O)[C@H](N)CCCNC(=N)N)C(=O)N[C@H](Cc1ccc(O)cc1)C(=O)NCCCC[C@H](NC(=O)[C@@H](Cc1ccc(O)cc1)NC(=O)[C@H](NC(=O)[C@H](N)CCCNC(=N)N)[C@H](C)O)C(=O)NCCCC[C@H](NC(=O)[C@H](CCCCNC(=O)[C@@H](Cc1ccc(O)cc1)NC(=O)[C@H](NC(=O)[C@H](N)CCCNC(=N)N)[C@H](C)O)NC(=O)[C@@H](Cc1ccc(O)cc1)NC(=O)[C@H](NC(=O)[C@H](N)CCCNC(=N)N)[C@H](C)O)C(=O)NCC(=O)O [Comparative peptide, (H-D-Arg-D-Thr-D-Tyr-)4-L-Lys2-L-Lys-Gly-OH, reference compound] | about 7 mg/kg | 0 | 40 | 49 | 59 | 62 | 70 | 10 |  |  |  |  |  |  |  |
| ~300 | (H-L-Cys(p-MeOBzl)-D-Arg-D-Thr-D-Tyr)4-L-Lys2-L-Lys-L-Lys-OH [Peptide IB] | 1 mg/kg | 20 | 76 | 80 | 82 | 85 | 90 | 1 | 10 | 50 | 65 | 71 | 85 | about 7 times | approx. 15 times |
